Counter-ions that a name gives are not always drawn.
Test system: Acinetobacter baumannii ATCC17961
Experiment: Antimicrobial susceptibility testing: 90% growth inhibitory concentration (IC90) determination in Iso-Sensitest broth, OD600 growth
Format: cell-based
Conditions: Acinetobacter baumannii, ATCC17961, 16 h, read-out: A. baumannii ATCC 17961 IC90 (uM), strain ATCC 17961, OD600 growth over 16 h
Outline: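 OD600 read every 20 min for 16 h at 35±2° C; inhibition taken in log phase to derive IC90. Twofold, 10-point dilutions (e.g. 50–0.097 μM final), inoculum ~5×10^(5) CFU/ml.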

Row | SMILES | IC90
1 | CCc1cc(Nc2nccn3c(-c4cn(CC#N)nc4C(F)(F)F)cnc23)ccc1C(=O)NCCNC(=O)CCCN [Example 540, N-(2-(4-aminobutanamido)ethyl)-4-((3-(1-(cyanomethyl)-3-(trifluoromethyl)-1H-pyrazol-4-yl)imidazo[1,2-a]pyrazin-8-yl)amino)-2-ethylbenzamide formate] | 0.249 µM
2 | CCc1cc(Nc2nccn3c(-c4cn(CC(F)F)nc4C(F)(F)F)cnc23)ccc1C(=O)NCCCNC(=O)[C@@H]1CC[C@H](N)C1 [Example 543, N-(3-((1R,3S)-3-aminocyclopentane-1-carboxamido)propyl)-4-((3-(1-(2,2-difluoroethyl)-3-(trifluoromethyl)-1H-pyrazol-4-yl)imidazo[1,2-a]pyrazin-8-yl)amino)-2-ethylbenzamide formate] | 0.162 µM
3 | CCc1cc(Nc2nccn3c(-c4cn(CC(F)F)nc4C(F)(F)F)cnc23)ccc1C(=O)NCC(=O)N1CCCC(N)C1 (stereo not drawn) [Example 544, N-[2-(3-amino-1-piperidyl)-2-oxo-ethyl]-4-[[3-[1-(2,2-difluoroethyl)-3-(trifluoromethyl)pyrazol-4-yl]imidazo[1,2-a]pyrazin-8-yl]amino]-2-ethyl-benzamide formate] | 0.232 µM
4 | CCc1cc(Nc2nccn3c(-c4cn(CC(F)F)nc4C(F)(F)F)cnc23)ccc1C(=O)NCC(=O)N1CCNC(C)C1 (stereo not drawn) [Example 545, 4-[[3-[1-(2,2-difluoroethyl)-3-(trifluoromethyl)pyrazol-4-yl]imidazo[1,2-a]pyrazin-8-yl]amino]-2-ethyl-N-[2-(3-methylpiperazin-1-yl)-2-oxo-ethyl]benzamide formate] | 0.306 µM
5 | CCc1cc(Nc2nccn3c(-c4cn(CC(F)F)nc4C(F)(F)F)cnc23)ccc1C(=O)NCC(=O)NCC1(O)CNC1 [Example 546, 4-[[3-[1-(2,2-difluoroethyl)-3-(trifluoromethyl)pyrazol-4-yl]imidazo[1,2-a]pyrazin-8-yl]amino]-2-ethyl-N-[2-[(3-hydroxyazetidin-3-yl)methylamino]-2-oxo-ethyl]benzamide formate] | 0.298 µM
6 | CCc1cc(Nc2nccn3c(-c4cn(CC(F)F)nc4C(F)(F)F)cnc23)ccc1C(=O)NCC(=O)NCC1CNC1 [Example 547, N-[2-(azetidin-3-ylmethylamino)-2-oxo-ethyl]-4-[[3-[1-(2,2-difluoroethyl)-3-(trifluoromethyl)pyrazol-4-yl]imidazo[1,2-a]pyrazin-8-yl]amino]-2-ethyl-benzamide formate] | 0.298 µM
7 | CCc1cc(Nc2nccn3c(-c4cn(CC(F)F)nc4C(F)(F)F)cnc23)ccc1C(=O)NCC(=O)NCC1(O)CCNCC1 [Example 551, 4-[[3-[1-(2,2-difluoroethyl)-3-(trifluoromethyl)pyrazol-4-yl]imidazo[1,2-a]pyrazin-8-yl]amino]-2-ethyl-N-[2-[(4-hydroxy-4-piperidyl)methylamino]-2-oxo-ethyl]benzamide formate] | 0.357 µM
8 | CCc1cc(Nc2nccn3c(-c4c[nH]nc4C(F)(F)F)cnc23)ccc1C(=O)NCCNC(=O)C1CCNCC1 [Example 553, N-(2-(2-ethyl-4-((3-(3-(trifluoromethyl)-1H-pyrazol-4-yl)imidazo[1,2-a]pyrazin-8-yl)amino)benzamido)ethyl) piperidine-4-carboxamide formate] | 0.682 µM
9 | CCc1cc(Nc2nccn3c(-c4cn(CC(F)F)nc4C(F)(F)F)cnc23)ccc1C(=O)NCCNC(=O)C1CCNCC1 [Example 554, N-(2-(4-((3-(1-(2,2-difluoroethyl)-3-(trifluoromethyl)-1H-pyrazol-4-yl)imidazo[1,2-a]pyrazin-8-yl)amino)-2-ethylbenzamido)ethyl) piperidine-4-carboxamide formate] | 0.198 µM
10 | CCc1cc(Nc2nccn3c(-c4cn(CC(F)F)nc4C(F)(F)F)cnc23)ccc1C(=O)N1CCC2(CNC2)C1 [Example 555, (4-((3-(1-(2,2-difluoroethyl)-3-(trifluoromethyl)-1H-pyrazol-4-yl)imidazo[1,2-a]pyrazin-8-yl)amino)-2-ethylphenyl)(2,6-diazaspiro[3.4]octan-6-yl)methanone formate] | 0.977 µM
11 | CCc1cc(Nc2nccn3c(-c4cn(CC(F)F)nc4C(F)(F)F)cnc23)ccc1C(=O)N1CC(N)C1 [Example 556, (3-aminoazetidin-1-yl)(4-((3-(1-(2,2-difluoroethyl)-3-(trifluoromethyl)-1H-pyrazol-4-yl)imidazo[1,2-a]pyrazin-8-yl)amino)-2-ethylphenyl)methanone formate] | 0.675 µM
12 | CCc1cc(Nc2nccn3c(-c4cn(CC(F)F)nc4C(F)(F)F)cnc23)ccc1C(=O)NCC1CNC1 [Example 557, N-(azetidin-3-ylmethyl)-4-((3-(1-(2,2-difluoroethyl)-3-(trifluoromethyl)-1H-pyrazol-4-yl)imidazo[1,2-a]pyrazin-8-yl)amino)-2-ethylbenzamide formate] | 0.144 µM
13 | CCc1cc(Nc2nccn3c(-c4cn(CC(F)F)nc4C(F)(F)F)cnc23)ccc1C(=O)NCC(CN)CCl (stereo not drawn) [Example 558, N-(3-amino-2-(chloromethyl)propyl)-4-((3-(1-(2,2-difluoroethyl)-3-(trifluoromethyl)-1H-pyrazol-4-yl)imidazo[1,2-a]pyrazin-8-yl)amino)-2-ethylbenzamide formate] | 0.174 µM
14 | CCc1cc(Nc2nccn3c(-c4cn(CC(F)F)nc4C(F)(F)F)cnc23)ccc1C(=O)N1CCC12CNC2 [Example 559, (4-((3-(1-(2,2-difluoroethyl)-3-(trifluoromethyl)-1H-pyrazol-4-yl)imidazo[1,2-a]pyrazin-8-yl)amino)-2-ethylphenyl)(1,6-diazaspiro[3.3]heptan-1-yl)methanone formate] | 0.398 µM
15 | CCc1cc(Nc2nccn3c(-c4cn(CC(F)F)nc4C(F)(F)F)cnc23)ccc1C(=O)N1CC2CC1CN2 (stereo not drawn) [Example 561, (2,5-diazabicyclo [2.2.1]heptan-2-yl)(4-((3-(1(2,2-difluoroethyl)-3-(trifluoromethyl)-1H-pyrazol-4-yl)imidazo[1,2-a]pyrazin-8-yl)amino)-2-ethylphenyl) methanone formate] | 0.909 µM
16 | CCc1cc(Nc2nccn3c(-c4cn(CC(F)F)nc4C(F)(F)F)cnc23)ccc1C(=O)NC1C2CNCC21 (stereo not drawn) [Example 562, N-(3-azabicyclo[3.1.0]hexan-6-yl)-4-((3-(1-(2,2-difluoroethyl)-3-(trifluoromethyl)-1H-pyrazol-4-yl)imidazo[1,2-a]pyrazin-8-yl)amino)-2-ethylbenzamide formate] | 0.305 µM

Same assay, conditions: Acinetobacter baumannii, ATCC17961, 16 h, strain ATCC 17961, OD600 growth over 16 h, read-out: A. baumannii ATCC 17961 IC90

Row | SMILES | IC90
17 | CCc1cc(Nc2nccn3c(-c4cn(CC(F)F)nc4C(F)F)cnc23)ccc1C(=O)N[C@H]1C[C@@H](N)C1 [Example 539, N-((1s,3s)-3-aminocyclobutyl)-4-((3-(1-(2,2-difluoroethyl)-3-(difluoromethyl)-1H-pyrazol-4-yl)imidazo[1,2-a]pyrazin-8-yl)amino)-2-ethylbenzamide] | 0.461 µM
18 | CCc1cc(Nc2nccn3c(-c4cn(CC(F)F)nc4C(F)(F)F)cnc23)ccc1C(=O)NCCCNC(=O)[C@H]1C[C@@H](N)C1 [Example 541, N-(3-((1s,3s)-3-aminocyclobutane-1-carboxamido)propyl)-4-((3-(1-(2,2-difluoroethyl)-3-(trifluoromethyl)-1H-pyrazol-4-yl)imidazo[1,2-a]pyrazin-8-yl)amino)-2-ethylbenzamide formate] | 0.246 µM
19 | CCc1cc(Nc2nccn3c(-c4cn(CC(F)F)nc4C(F)(F)F)cnc23)ccc1C(=O)NCCCNC(=O)[C@H]1C[C@H](N)C1 [Example 542, N-(3-((1r,3r)-3-aminocyclobutane-1-carboxamido)propyl)-4-((3-(1-(2,2-difluoroethyl)-3-(trifluoromethyl)-1H-pyrazol-4-yl)imidazo[1,2-a]pyrazin-8-yl)amino)-2-ethylbenzamide formate] | 0.196 µM
20 | CCc1cc(Nc2nccn3c(-c4cn(CC(F)F)nc4C(F)(F)F)cnc23)ccc1C(=O)NCC(=O)NCC1CCCN1 (stereo not drawn) [Example 548, 4-[[3-[1-(2,2-difluoroethyl)-3-(trifluoromethyl)pyrazol-4-yl]imidazo[1,2-a]pyrazin-8-yl]amino]-2-ethyl-N-[2-oxo-2-(pyrrolidin-2-ylmethylamino)ethyl] benzamide formate] | 0.267 µM
21 | CCc1cc(Nc2nccn3c(-c4cn(CC(F)F)nc4C(F)(F)F)cnc23)ccc1C(=O)NCC(=O)NCC1CCNC1 (stereo not drawn) [Example 549, 4-[[3-[1-(2,2-difluoroethyl)-3-(trifluoromethyl)pyrazol-4-yl]imidazo[1,2-a]pyrazin-8-yl]amino]-2-ethyl-N-[2-oxo-2-(pyrrolidin-3-ylmethylamino)ethyl] benzamide formate] | 0.235 µM
22 | CCc1cc(Nc2nccn3c(-c4cn(CC(F)F)nc4C(F)(F)F)cnc23)ccc1C(=O)NCC(=O)NCC1CCNCC1 [Example 550, 4-[[3-[1-(2,2-difluoroethyl)-3-(trifluoromethyl)pyrazol-4-yl]imidazo[1,2-a]pyrazin-8-yl]amino]-2-ethyl-N-[2-oxo-2-(4-piperidylmethylamino)ethyl] benzamide formate] | 0.261 µM
23 | CCc1cc(Nc2nccn3c(-c4cn(CC(F)F)nc4C(F)F)cnc23)ccc1C(=O)N[C@H]1C[C@@H](NC(=O)[C@@H]2C[C@@H](O)CN2)C1 [Example 552, (2S,4R)-N-((1s,3R)-3-(4-((3-(1-(2,2-difluoroethyl)-3-(difluoromethyl)-1H-pyrazol-4-yl)imidazo[1,2-a]pyrazin-8-yl)amino)-2-ethylbenzamido)cyclobutyl)-4-hydroxypyrrolidine-2-carboxamide] | 0.489 µM
24 | CCc1cc(Nc2nccn3c(-c4cn(CC(F)F)nc4C(F)(F)F)cnc23)ccc1C(=O)N1CCC1(CN)CCl (stereo not drawn) [Example 560, (2-(aminomethyl)-2-(chloromethyl)azetidin-1-yl)(4-((3-(1-(2,2-difluoroethyl)-3-(trifluoromethyl)-1H-pyrazol-4-yl)imidazo[1,2-a]pyrazin-8-yl)amino)-2-ethylphenyl) methanone formate] | 0.836 µM
